{"source": "patent US20070054943A1", "about": "“Therapeutic agent for keratoconjunctival disorder” (SANTEN PHARMACEUTICAL CO., LTD., priority 2004, published 2007)", "test_system": "corneal disorder models", "experiment": "Test for therapeutic effect on corneal damage (corneal disorder models, exorbital lacrimal gland removal, fluorescein staining score)", "format": "in vivo, male SD rats", "details": "for Improvement ratio (%): {(control)-(compound)}/{(control)-(normal eye)}x100; for Mean value of total scores: fluorescein staining score (0-3 each for upper, middle, lower cornea), mean of 8 cases, normal eye 2.9, control 6.1; for effect on corneal damage (in words): rat corneal disorder models, instillation of rosiglitazone 0.02% or pioglitazone hydrochloride 0.01%, 6 times a day for 14 days", "protocol": "Test For Therapeutic Effect On Corneal Damage\nUsing male SD rats, in accordance with the method of Fujihara et al. (Invest. Ophthalmol. Vis. Sci. 42 (1) 96-100 (2001)), corneal disorder models were produced. After the production of the corneal disorder models, the improvement ratio of a corneal damage was evaluated by a method (Journal of the eye 21 (1) : 87-90 (2004)) modified from the method of Miyata et al. (Japanese Review of Clinical Ophthalmology 48 (2) : 183-188 (1994)).\nA male SD rat was systemically anesthetized by an administration of Nembutal. Subsequently the exorbital lacrimal gland was removed and a corneal damage was induced over a period of 2 months.\nThen, the present compound (rosiglitazone or pioglitazone hydrochloride) was administered as follows.\nA physiological saline solution of rosiglitazone (0.02%) was instilled into both eyes 6 times a day for 14 days (one group consisting of 8 animals).\nA physiological saline solution of pioglitazone hydrochloride (0.01%) was instilled into both eyes 6 times a day for 14 days (one group consisting of 8 animals).\nIn a control group, physiological saline was instilled into both eyes 6 times a day for 14 days (one group consisting of 8 animals).\nFourteen days after the start of instillation, the damaged parts of the cornea were stained with fluorescein. For each of the upper, middle and lower parts of the cornea, the degree of fluorescein staining was evaluated by scoring according to the criteria shown below and the improvement ratio of corneal damage was calculated from the mean value of the total scores for each of the above-mentioned parts.\n• 0: No punctate staining • 1: Scattered staining (punctate staining being separated) • 2: Moderate staining (a part of punctate staining being adjacent) • 3: Heavy staining (punctate staining being barely separated) (Results)\nBy taking the mean value of the total scores for the control group (physiological saline) as a standard (improvement ratio: 0%) and according to the calculation formula shown below, the improvement ratios for rosiglitazone (0.02%) instillation group and pioglitazone (0.01%) instillation group were calculated, which are shown in Table 1. The mean value of the scores is a mean of those of 8 cases, respectively. Improvement ratio(%)={(control)−(the present compound)}/damage degree×100\nDamage degree=(control)−(normal eye)", "key": {"[1]": {"details": "0.02% in physiological saline instilled into both eyes 6 times a day for 14 days"}, "[2]": {"details": "0.01% (pioglitazone hydrochloride) in physiological saline instilled into both eyes 6 times a day for 14 days"}}, "note": "“Also recorded” adds a separate entry of the source.", "data": [{"molecule": "CN(CCOc1ccc(CC2SC(=O)NC2=O)cc1)c1ccccn1", "note": "(stereo not shown) [Rosiglitazone, 5-[p-[2-(methyl-2-pyridylamino)ethoxy]benzyl]-2,4-thiazolidinedione]", "values": [{"measurement": "Improvement ratio (%)", "setting": "[1]", "value": 68.7, "unit": "%"}, {"measurement": "Mean value of total scores", "setting": "[1]", "value": 3.9}, {"measurement": "effect on corneal damage (in words)", "value": "excellent improving effect; also recorded: significantly improve a corneal damage"}]}, {"molecule": "CCc1ccc(CCOc2ccc(CC3SC(=O)NC3=O)cc2)nc1", "note": "(stereo not shown) [Pioglitazone, 5-[[4-[2-(5-ethyl-2-pyridinyl)ethoxy]phenyl]methyl]-2,4-thiazolidinedione]", "values": [{"measurement": "Improvement ratio (%)", "setting": "[2]", "value": 62.5, "unit": "%"}, {"measurement": "Mean value of total scores", "setting": "[2]", "value": 4.1}, {"measurement": "effect on corneal damage (in words)", "setting": "listed as pioglitazone", "value": "significantly improve a corneal damage"}, {"measurement": "effect on corneal damage (in words)", "setting": "listed as pioglitazone hydrochloride", "value": "excellent improving effect"}]}]}
